# Measurements: ChEMBL document CHEMBL1131310 (J Med Chem, 1998)
# Several values for one entry are separate records, joined by “and”; a condition that tells them apart may be missing. Equal values may be shown once.
# Legend:
# [1] = species: Gallus gallus; assay: The compound was evaluated for neurite outgrowth from chick dorsal root ganglia; type: functional
# [2] = target: Peptidyl-prolyl cis-trans isomerase FKBP1A (Homo sapiens, UniProt P62942); assay: The compound was tested for binding affinity against rotamase
# Peptidyl-prolyl cis-trans isomerase FKBP1A, sequence (P62942 whole entry): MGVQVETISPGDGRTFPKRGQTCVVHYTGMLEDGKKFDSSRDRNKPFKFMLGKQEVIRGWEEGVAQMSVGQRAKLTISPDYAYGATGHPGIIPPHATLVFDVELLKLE
SMILES,ED50 [1] [nM],Ki [2]
CCC(C)(C)C(=O)C(=O)N1CCCC[C@H]1C(=O)O[C@H](CCc1ccccc1)c1ccccc1,0.3,–
CCC(C)(C)C(=O)C(=O)N1CCCC[C@H]1C(=O)OCCCc1cccnc1,8.5,165 nM
CCC(C)(C)C(=O)C(=O)N1CCCC[C@H]1C(=O)OCCCc1ccccc1,300,250 nM and 110 nM
CCC(C)(C)C(=O)C(=O)N1CCC[C@H]1C(=O)OCCCc1ccccc1,53,–
CCC(C)(C)C(=O)C(=O)N1CCC[C@H]1C(=O)OCCCc1cccnc1 [GPI-1046],0.05,–
